# “And” between values parts separate entries of the source, which are not always exact repeats. Equal values may be shown once. Read-outs that look alike come from different tables or passages of the source.
# Tests used:
# MCF-7 = assay: 3H-TdR (3H-thymidine) incorporation assay at 72 hr; format: cell-based, Human; conditions: 3H-TdR incorporation at 72 hr
# CEM/dCK- [1] = assay: 3H-TdR (3H-thymidine) incorporation assay at 72 hr; format: cell-based; conditions: for IC50: deoxycytidine kinase-deficient CCRF-CEM; for Factor* (Resistance Factor = Ratio of dCK- on Wild-type CCRF-CEM): ratio of IC50 CEM/dCK- to CCRF-CEM, 24 h
# Description: (§1) Table of IC50 Values (μM) for Controls
# (§2) Exposition of 24 hr to drug, wash, incubated for another 48 hr (total of 72 hr assay)
# (§3) (3H-Thymidine Incorporation Assay)
# CCRF-CEM = assay: 3H-TdR (3H-thymidine) incorporation assay at 72 hr; format: cell-based; conditions: 3H-TdR incorporation at 72 hr
# Description: as §1, §2, §3
# SF-268 = assay: 3H-TdR (3H-thymidine) incorporation assay at 72 hr; format: cell-based, Human; conditions: 3H-TdR incorporation at 72 hr
# H-460 = assay: 3H-TdR (3H-thymidine) incorporation assay at 72 hr; format: cell-based, Human; conditions: 3H-TdR incorporation at 72 hr
# CEM/dCK- [2] = assay: 3H-TdR incorporation at 72 hr (24 hr drug exposure, wash, 48 hr); format: cell-based; conditions: read-out: IC50 in μM (3H-TdR incorporation at 72 hr) CEM/dCK- 24 h; CCRF-CEM deoxycytidine kinase-deficient; 24 h drug exposure, 72 hr assay
# Description: as §2, §3
# [3] = Homo sapiens, MCF7, read-out: IC50 MCF-7 24 h, 24 h drug exposure, wash, another 48 hr
# [4] = read-out: IC50 MCF-7 24 h, 24 h drug exposure, wash, another 48 hr
# [5] = Homo sapiens, CCRF-CEM, read-out: IC50 CEM/dCK- 24 h, 24 h drug exposure, wash, another 48 hr
# [6] = Homo sapiens, CCRF-CEM, read-out: IC50 CCRF-CEM 24 h, 24 h drug exposure, wash, another 48 hr
# [7] = read-out: IC50 CCRF-CEM 24 h, 24 h drug exposure, wash, another 48 hr
# [8] = Homo sapiens, SF-268, read-out: IC50 SF-268 24 h, 24 h drug exposure, wash, another 48 hr
# [9] = Homo sapiens, NCI-H460, read-out: IC50 H-460 24 h, 24 h drug exposure, wash, another 48 hr
# [10] = read-out: IC50 H-460 24 h, 24 h drug exposure, wash, another 48 hr
# [11] = read-out: IC50 CEM/dCK- 24 h, 24 h drug exposure, wash, another 48 hr
# [12] = read-out: IC50 SF-268 24 h, 24 h drug exposure, wash, another 48 hr
IC50 (MCF-7; [3]),IC50 (MCF-7; [4]),IC50 (CEM/dCK- [1]; [5]),IC50 (CCRF-CEM; [6]),IC50 (H-460; [9]),Compound,further results
190 nM,210 nM,> 100000 nM,1800 nM,,"CCCCC(C)C(=O)Nc1ccn([C@@H]2CO[C@H](CO)O2)c(=O)n1 (stereo in doubt) [Compound 96, 2-METHYL-HEXANOIC ACID [1-(2-HYDROXYMETHYL- [1,3]DIOXOLAN-4-YL)-2- OXO-1,2-DIHYDRO- PYRIMIDIN-4-YL]-AMIDE]",IC50 (CCRF-CEM; [7]): 1900 nM
6300 nM,,> 100000 nM,5000 nM,,"CCCCC(CC)C(=O)Nc1ccn([C@@H]2CO[C@H](CO)O2)c(=O)n1 (stereo in doubt) [Compound 99, 2-ETHYL-HEXANOIC ACID [1-(2-HYDROXYMETHYL- [1,3]DIOXOLAN-4-YL)-2- OXO-1,2-DIHYDRO- PYRIMIDIN-4-YL]-AMIDE]",IC50 (SF-268; [8]): 33000 nM; Factor* (Resistance Factor = Ratio of dCK- on Wild-type CCRF-CEM) (CEM/dCK- [1]): >20
,,,,,CC(=O)OC[C@H]1OC[C@@H](n2ccc(N)nc2=O)O1 [Compound 27],"IC50 (MCF-7; read-out: IC50 MCF-7 (72 h), 72 h exposure): 7.3 nM; IC50 (SF-268; read-out: IC50 SF-268 (72 h), 72 h exposure): 23 nM; IC50 (H-460; read-out: IC50 H-460 (72 h), 72 h exposure): 5.3 nM"
,,> 100000 nM,,340 nM,"CCCCNC(=O)OC[C@H]1OC[C@@H](n2ccc(N)nc2=O)O1 [Compound 48, BUTYL-CARBAMIC ACID 4- (4-AMINO-2-OXO-2H- PYRIMIDIN-1-YL)- [1,3]DIOXOLAN-2- YLMETHYL ESTER]",IC50 (H-460; [10]): 590 nM
860 nM,950 nM,2900 nM,290 nM,2000 nM,"CC(C)(C(=O)Nc1ccn([C@@H]2CO[C@H](CO)O2)c(=O)n1)c1ccccc1[N+](=O)[O-] [Compound 60, (2S,4S)--2- HYDROXYMETHYL-4-N-[2″- (2″′-NITROPHENYL)-2″- METHYLPROPIONYL]- CYTOSINE-1′-YL-1,3- DIOXOLANE]",IC50 (H-460; [10]): 3100 nM; IC50 (CEM/dCK- [1]; [11]): 1800 nM; IC50 (CCRF-CEM; [7]): 310 nM
,,> 100000 nM,,,"CCCCCCOC(=O)Nc1ccn([C@@H]2CO[C@H](CO)O2)c(=O)n1 [Compound 61, [1-(2-HYDROXYMETHYL- [1,3]DIOXOLAN-4-YL)-2- OXO-1,2-DIHYDRO- PYRIMIDIN-4-YL]- CARBAMIC ACID HEXYL ESTER]",
15 nM,17 nM,23000 nM,,18 nM,"CCCCC(C)(C)C(=O)OC[C@H]1OC[C@@H](n2ccc(/N=C\N(C)C)nc2=O)O1 [Compound 72, (2S,4S)-2-(2″- DIMETHYLHEXANOICOXYMETH YL)-4-(4′-N,N- DIMETHYLAMINOMETHYLENE- CYTOSIN-1′-YL)-1,3- DIOXOLANE]",IC50 (SF-268; [8]): 130 nM; IC50 (SF-268; [12]): 75 nM; IC50 (H-460; [10]): 27 nM
,,> 100000 nM,,,"Cc1cccc(C)c1C(=O)OC[C@H]1OC[C@@H](n2ccc(/N=C\N(C)C)nc2=O)O1 [Compound 87, (2S,4S)-2-(2″,6″- DIMETHYLBENZOYLOXYMETHY L)-4-(4′-N,N- DIMETHYLAMINOMETHLYENE- CYTOSIN-1′-YL)-1,3- DIOXOLANE]",
,,> 100000 nM,,,"CCNc1ccn([C@@H]2CO[C@H](COCC)O2)c(=O)n1 [Compound 93, 1-(2′(S)-ETHOXYMETHYL- [1,3]DIOXOLAN-4′(S)- YL)-4-ETHYLAMINO-1H- PYRIMIDIN-2-ONE]",IC50 (SF-268; [8]): > 100000 nM
24000 nM,13000 nM,51000 nM,,,"CC(C)[C@@H]1CC[C@@H](C)C[C@H]1OC(=O)Nc1ccn([C@@H]2CO[C@H](CO)O2)c(=O)n1 [Compound 94, [1-(2-Hydroxymethyl-[1,3]dioxolan-4-yl)-2-oxo-1,2-dihydro-pyrimidin-4-yl]-carbamic acid 2-isopropyl-5-methyl-cyclohexyl ester]",IC50 (CEM/dCK- [1]; [11]): 85000 nM
150 nM,100 nM,,,< 0.1 nM,"CC(C)[C@@H]1CC[C@@H](C)C[C@H]1OC(=O)OC[C@H]1OC[C@@H](n2ccc(N)nc2=O)O1 [Compound 95, Carbonic acid 4-(4-amino-2-oxo-2#H!- pyrimidin-1-yl)-[1,3]dioxolan-2-ylmethyl ester 2-isopropyl-5-methyl-cyclohexyl ester]",
130 nM,150 nM and 220 nM,> 100000 nM,,,"Nc1ccn([C@@H]2CO[C@H](COCc3ccccc3)O2)c(=O)n1 [Compound 98, (2S,4S) 4-AMINO-1-(2- BENZYLOXYMETHYL- [1,3]DIOXOLAN-4-YL)-1H- PYRIMIDIN-2-ONE]",
,,,,30 nM,"CC(C)c1cc(C(C)C)c(C(=O)OC[C@H]2OC[C@@H](n3ccc(N)nc3=O)O2)c(C(C)C)c1 [Compound 100, 2,4,6-Triisopropyl-benzoic acid 4-(4-amino-2-oxo-2H-pyrimidin-1-yl)-[1,3]dioxolan-2-ylmethyl ester]",IC50 (H-460; [10]): 44 nM
,,,,,CC(C(=O)OC[C@H]1OC[C@@H](n2ccc(N)nc2=O)O1)c1ccccc1.Cl (some centres unmarked) [Compound 106],"Factor* (Resistance Factor = Ratio of dCK- on Wild-type CCRF-CEM) (CEM/dCK- [1]): 4,600"
16000 nM,15000 nM,> 100000 nM,15000 nM,,"CC(C)c1ccc(NC(=O)OC[C@H]2OC[C@@H](n3ccc(N)nc3=O)O2)cc1 [Compound 127, (4-ISOPROPYL-PHENYL)- CARBAMIC ACID 4-(4- AMINO-2-OXO-2H- PYRIMIDIN-1-YL)- [1,3]DIOXOLAN-2- YLMETHYL ESTER]",IC50 (CCRF-CEM; [7]): 22000 nM
,,,,,"CCCCCCN(CCCCCC)C(=O)OC[C@H]1OC[C@@H](n2ccc(N)nc2=O)O1 [Compound 135, DIHEXYLCARBAMIC ACID 4(S)-(4′-AMINO-2′-OXO- 2H-PYRIMIDIN-1′-YL)- [1,3]DIOXOLAN-2(S)- YLMETHYL ESTER]",IC50 (SF-268; [8]): 250 nM
,,84000 nM,5000 nM,,"CCCCCCCCCCNC(=O)OC[C@H]1OC[C@@H](n2ccc(N)nc2=O)O1 [Compound 137, DECYL-CARBAMIC ACID 4- (4-AMINO-2-OXO-2H- PYRIMIDIN-1-YL)- [1,3]DIOXOLAN-2- YLMETHYL ESTER]",IC50 (SF-268; [8]): 18400 nM; IC50 (SF-268; [12]): 16000 nM; IC50 (CEM/dCK- [1]; [11]): 53000 nM; IC50 (CCRF-CEM; [7]): 6500 nM
,,> 100000 nM,,,"CC(C)(C(=O)OC[C@H]1OC[C@@H](n2ccc(N)nc2=O)O1)c1ccccc1[N+](=O)[O-] [Compound 155, (2S,4S)-2-[2″-(2″′- NITROPHENYL)-2″- METHYLPROPIONYLOXYMETHY L]-4-CYTOSIN-1′-YL-1,3- DIOXOLANE]",
,,,,,"CN(C)/C=N/c1ccn([C@@H]2CO[C@H](COC(=O)C(C)(C)CCC(=O)N(Cc3ccccc3)C(=O)OC(C)(C)C)O2)c(=O)n1 [Compound 166, 5-(Benzyl-tert-butoxycarbonyl-amino)-2,2-dimethyl-5-oxo-pentanoic acid 4-[4-(dimethylamino-methyleneamino)-2-oxo-2H-pyrimidin-1-yl]-[1,3]dioxolan-2-ylmethyl ester]",IC50 (CEM/dCK- [2]): 10 µM
240 nM,,,,580 nM,"CC(C)(C)C(=O)OC[C@H]1OC[C@@H](n2ccc(N)nc2=O)O1 [Compound 279, 2,2-DIMETHYL-PROPIONIC ACID 4-(4-AMINO-2-OXO- 2H-PYRIMIDIN-1-YL)- [1,3]DIOXOLAN-2-YL METHYL ESTER]","IC50 (MCF-7; Homo sapiens, MCF7, read-out: IC50 MCF-7 (72 h), 72 h exposure): 21 nM; IC50 (SF-268; [8]): 390 nM; IC50 (SF-268; Homo sapiens, SF-268, read-out: IC50 SF-268 (72 h), 72 h exposure): 44 nM; IC50 (H-460; Homo sapiens, NCI-H460, read-out: IC50 H-460 (72 h), 72 h exposure): 73 nM"

Compound,IC50 (MCF-7; [3]),IC50 (MCF-7; [4]),IC50 (CEM/dCK- [1]; [5]),IC50 (CCRF-CEM; [6]),IC50 (H-460; [9]),further results
"CC(C)(C)OC(=O)N(CCCCCC(=O)OC[C@H]1OC[C@@H](n2ccc(N)nc2=O)O1)Cc1ccccc1 [Compound 66, 6-(Benzyl-tert-butoxycarbonyl-amino)-hexanoic acid 4-(4-amino-2-oxo-2H-pyrimidin-1-yl)-[1,3]dioxolan-2-ylmethyl ester]",< 0.1 nM,0.074 nM,,,,
"CCCCOC(C)OC[C@H]1OC[C@@H](n2ccc(N)nc2=O)O1 (some centres unmarked) [Compound 97, 4-AMINO-1-[2-(1-BUTOXY- ETHOXYMETHYL)- [1,3]DIOXOLAN-4-YL]-1H- PYRIMIDIN-2-ONE]",5000 nM,4000 nM,> 100000 nM,9200 nM,22000 nM,IC50 (CCRF-CEM; [7]): 5900 nM
"CC(CCCCN(Cc1ccccc1)C(=O)OC(C)(C)C)C(=O)OC[C@H]1OC[C@@H](n2ccc(/N=C/N(C)C)nc2=O)O1 (some centres unmarked) [Compound 149, 6-(Benzyl-tert-butoxycarbonyl-amino)-methyl-hexanoic acid 4-[4-(dimethylamino-methyleneamino)-2-oxo-2H-pyrimidin-1-yl]-[1,3]dioxolan-2-ylmethyl ester]",,,2000 nM,< 0.1 nM,,IC50 (CEM/dCK- [1]; [11]): > 1800 nM; IC50 (CCRF-CEM; [7]): 0.12 nM

# Reference: patent US20030013660A1, “Dioxolane analogs for improved inter-cellular delivery” (Shire BioChem Inc., priority 2000, published 2003)
